Results on 2 compounds are retold here after publication PMC12814185, “Receptor-Mediated Shuttling of a D‑Amino Acid Peptide Achieves High Nanomolar Cytosolic Concentrations” (Journal of the American Chemical Society, 2025).

Where a SMILES comes first, the peptide text is derived from it. Bridges are numbered along the chain shown (N, C = ends). Roman numbers before positions name the chains, in order. Triazole bridges read from a SMILES are 1,4-linked. Where no end group is shown, it is not given here. Side-chain parts run from the residue outwards. [ ]: non-standard residue; d: D form. The star is where a group is joined. X2 = CN1C(=C/C=C/C=C/C2=[N+](CCCCCC(=O)*)c3ccc(S(=O)(=O)[O-])cc3C2(C)C)C(C)(C)c2cc(S(=O)(=O)O)ccc21; X1 = CN1C(=CC=CC=CC2=[N+](CCCCCC(=O)*)c3ccc(S(=O)(=O)[O-])cc3C2(C)C)C(C)(C)c2cc(S(=O)(=O)O)ccc21; Lys(N3) = [N-]=[N+]=NCCCC[C@H](N)C(=O)O; Cit = NC(=O)NCCC[C@H](N)C(=O)O; d(hCys) = N[C@H](CCS)C(=O)O; PEG3 = NCCOCCOCCOCCC(=O)O; Pra = C#CC[C@H](N)C(=O)O

Data set [1] deals with HEK293_CMKLR1-eYFP cells. As to the kind of experiment: Resazurin based cell viability assay, peptides. Particulars: 72 h incubation. The protocol:
page 3: […] 15% FCS. Calcium flux assay Calcium flux assay was performed with cells expressing CMKLR1 and the chimeric G protein […]. The stably transfected COS-7_CMKLR1-eYFP_ […] were seeded at 25,000 cells per well into poly-ᴅ-lysine-coated 96-well plates (black μCLEAR, Greiner). The next day, cells were incubated with […] (Sigma), 20 mM 4-(2-hydroxyethyl)-1-piperazineethanesulfonic acid (HEPES, Sigma) in Hanks' Balanced […] This solution was replaced by assay buffer, and basal Ca2+ signal (λex = 485 nm, λem = 525 nm) was measured for 20 s with a Flexstation 3 plate reader (Molecular Devices). Peptide dilutions were added, and the Ca2+ response was measured for 40 s. The maximum signal over baseline was calculated and normalized to peptide 1 (N3-cC9). Non-linear regression was performed using Prism 10 (GraphPad). Experiments were performed in technical duplicates and at least twice. Cell viability assay HEK293 and HEK293_CMKLR1-eYFP cells were seeded at 15,000 cells per well into poly-ᴅ-lysine coated 96-well plates (black μCLEAR, Greiner). […] Cells were then washed and a resazurin-based cell viability assay was performed. […] (1:1) + 15% FBS without phenol red was added to the cells. […] using the fluorescence of resorufin (λex = 550 nm, λem = 595 nm). Data was normalized to cells incubated without peptide (100%) and cells treated with ethanol for 3 min before resazurin addition (0%). Experiments were performed in technical triplicates and at least twice. Fluorescence microscopy Peptide internalization was evaluated by fluorescence microscopy. […] the cells and incubated for 6 h. […] All shown microscopy images are representative of at least two independent experiments. […] Resazurin based cell viability assay of HEK293 and HEK293_CMKLR1-eYFP cells after 72 h incubation with the p53/MDM2 inhibitor Nutlin-3a. […] 100 50 2Cy 3Cy 4Cy 0 -8 -7 -6 -5 -4 […]], log Figure S4. Resazurin based cell viability assay of HEK293_CMKLR1-eYFP cells after 72 h incubation with the PMIγ peptides discussed in this work. Mean ± SEM from two independent experiments performed in triplicates. 15 […]
On the technique in general: Alamar Blue is a resazurin reagent that responds to reducing activity.

A short description of data set [2]: FCS diffusion coefficient in solution. Type of data set: physicochemical. The note with it: 10 nM in Fluorobrite DMEM, 22 °C, mean and SD of three independent measurements. The source says: Fluorescence correlation spectroscopy (FCS) […] Nuclei were […] HEPES (pH 7.4). […] Prior to measurements, the correction collar of the objective […] Repeats […] is the autocorrelation at τ, N the average number of molecules in the focal volume, τD the average diffusion time through the focal volume, α the anomalous coefficient describing the hindered diffusion, S the shape factor of the focal volume, τE the time domain of the additional exponential term and E the fraction of molecules in the exponential term. […] [nM] [nM] […] 100 23.5 ± 40.2 11.9 *÷ 3.0 10.2 (5.2-32.1) 1000 138 ± 122 87.7 *÷ 3.0 98.8 (37.8-199) 10000 308 ± 257 239 *÷ 2.0 228 (157-435) […] Table S8. Predicted and measured diffusion coefficients D in solution. Measurements were performed with 10 nM of fluorescent compounds in Fluorobrite […] Data from three independent measurements. Mean and standard deviation are shown. name molecular predicted D measured […]] sulfo-Cy5 778.0 - 341.6 (reference) […] Intracellular cleavage product 2401.8 244.7 - 3Cy […]9 4475.1 175.0 138.5 ± 5.1 Intracellular cleavage product 2733.2 234.4 - 18

In data set [3] the test system is MDA-MB-231 cells. Put plainly: Fluorescence correlation spectroscopy (FCS) in the cytosol. Type of data set: cell-based. The note with it: 72 h. An excerpt:
Fluorescence correlation spectroscopy (FCS) […] Prior to measurements, the correction collar of the objective […] 1 τ 1 1 (Equation 2) G(τ) = ∗ (1 - […] 1 + ( τ )α √1 + S2 ∗ ( τ )α τD τD 4

Data set [4] concerns HEK293_CMKLR1-eYFP cells. Put plainly: Intracellular peptide stability (cleavage products in cell lysate, RP-HPLC, MALDI-ToF-MS). Particulars: 1 μM peptide; for intact peptide in cell lysate: 15 min to 24 h, RP-HPLC λex 640 nm λem 670 nm; for cleavage site identified by MALDI-ToF-MS: PMIγ sequence remained intact. How it is done: 3 Quantification of Cy5-labeled peptides in the cytosol. (A) RP-HPLC (λex = 640 nm, λem = 670 nm) of cleavage products of Cy5-labeled peptides in the lysate of HEK293_CMKLR1-eYFP cells after incubation with 1 μM peptide for different durations. […] (B) Representative fluorescence correlation spectroscopy (FCS) autocorrelation curves of Cy5-labeled peptides measured in the cytosol of HEK293_CMKLR1-eYFP cells after 72 h of incubation. Measured curves were fitted with a model for hindered 3D diffusion and diffusion time t D and anomalous coefficient α were calculated from the fit. Autocorrelation data represent mean ± SD of up to 10 consecutive 5 s measurements in a single cell. (C) Intracellular concentrations of Cy5-labeled peptides after 72 h incubation calculated from the fitted autocorrelation curves obtained in HEK293_CMKLR1-eYFP, HMEC-1, and THP-1 cells. Each data point corresponds to FCS measurements from the cytosol of a single cell. Median with the interquartile range is shown. Data from three independent experiments. Statistical comparison by log-normal unpaired t test. ***p ≤ 0.001, **p ≤ 0.01, *p ≤ 0.05, ns – not significant. […] (D) Calculated diffusion coefficients from the fitted autocorrelation curves. Median with the interquartile range is shown.
Intracellular peptide stability
2 mL of 1 µM Cy5-labeled peptide in DMEM/Ham's F12 (1:1) + 15% FBS without phenol red were incubated on stably transfected HEK293_CMKLR1-eYFP cells in T25 cell culture flasks for 15 min to 24 h. The cells were washed with cold acidic wash (50 mM glycine, 100 mM sodium chloride, pH 3) and phosphate-buffered saline (PBS, Biowest) and harvested into 300 µl cold PBS with HaltTM Protease inhibitor cocktail (Thermo).
Suspended cells were homogenized with zirconia beads on a FastPrep-24 5G system (MP Biomedical) for 30 s and cellular proteins were precipitated from 600 µL ACN/ethanol (1:1) + 0.1% TFA at -20 °C for 2 h.
Cell lysates were then filtered through Costar Spin-X tubes, separated by RP-HPLC and isolated peaks were identified by MALDI-ToF MS (Ultraflextreme, Bruker). Experiments were performed at least twice and representative RP-HPLC chromatograms are shown.

As to `CC(=O)N[C@@H](CCCCn1cc(C[C@H](NC(=O)CCOCCOCCOCCNC(=O)[C@H](CCCNC(N)=O)NC(=O)[C@@H](NC(=O)[C@H](CCC(=O)O)NC(=O)CNC(=O)CNC(=O)[C@@H](CCCNC(=N)N)NC(=O)[C@@H](CC(C)C)NC(=O)[C@@H](CC(C)C)NC(=O)[C@@H](C)NC(=O)[C@@H](CCC(=O)O)NC(=O)[C@@H](Cc2ccccc2)NC(=O)[C@@H](C)NC(=O)[C@@H](CC(C)C)NC(=O)[C@H]2CCCN2C(=O)[C@@H](Cc2c[nH]c3ccccc23)NC(=O)[C@@H](Cc2c[nH]c3ccccc23)NC(=O)[C@@H](CC(=O)O)NC(=O)CCOCCOCCOCCNC(=O)CCCCC[N+]2=C(/C=C/C=C/C=C3N(C)c4ccc(S(=O)(=O)O)cc4C3(C)C)C(C)(C)c3cc(S(=O)(=O)[O-])ccc32)C(C)C)C(N)=O)nn1)C(=O)N[C@@H](Cc1ccc(O)cc1)C(=O)N[C@@H](Cc1ccccc1)C(=O)N1CCC[C@H]1C(=O)N[C@@H]1CCSSC[C@@H](C(=O)O)NC(=O)[C@H](Cc2ccccc2)NC(=O)[C@H](C)NC(=O)[C@H](Cc2ccccc2)NC(=O)[C@H](CCC(N)=O)NC1=O` [2Cy] (I: {X2-PEG3}-[dD][dW][dW][dP][dL][dA][dF][dE][dA][dL][dL][dR]GGEV[Cit][PEG3][Pra]-NH2 / II: Ac-[Lys(N3)]YFP[d(hCys)]QFAFC-OH; triazole I:19-II:1; disulfide II:5-II:10), the cytotoxicity entry in data set [1] is recorded as “no signs of cytotoxicity”. For the same compound, the “measured D in solution” value in data set [2] came to 154.2 ± 4.3 µm2/s. In addition, the “cytosolic FCS measurement” value in data set [3] is reported as “no successful measurements were obtained”. Besides, the “intact peptide in cell lysate” value in data set [4] is “almost no intact peptide was detected”. Moreover, the “cleavage site identified by MALDI-ToF-MS” value in data set [4] (lysate) was “valine-citrulline linker was quickly cleaved”.
In the case of “I: GSVSHHHHHHGGHHHH[PEG3][dK]([PEG3-X1])[dD][dW][dW][dP][dL][dA][dF][dE][dA][dL][dL][dR]GEV[Cit][PEG3][Pra]-NH2 / II: Ac-[Lys(N3)]YFP[d(hCys)]QFAFC-OH (triazole I:36-II:1; disulfide II:5-II:10) [3Cy]”, in data set [1], the cytotoxicity result is listed as “tolerated slightly worse at concentrations above 1 μM”. For the same compound, the “measured D in solution” value in data set [2] was determined as 138.5 ± 5.1 µm2/s. The “cytosolic FCS measurement” value in data set [3] is reported as “no successful measurements were obtained”. In data set [4], the “intact peptide in cell lysate” value is “almost no intact peptide was detected”. In data set [4] (RP-HPLC of lysate), the “incubation time after which a singular cleavage product peak was observed” value is 1 h. In addition, the “fate of the hsLMWP sequence” value in data set [4] (lysate, MALDI-ToF-MS) is on record as “completely removed”. Besides, the “cleavage site identified by MALDI-ToF-MS” value in data set [4] (lysate) is on record as “valine-citrulline linker was quickly cleaved”.
